The results in this text go back to PubChem BioAssay (NCI).

Test systems include OVCAR-4 ovarian; SK-MEL-28 melanoma; SN12C renal; EKVX NSCLC; HCC-2998 colon; COLO 205 colon; KM12 colon; HL-60(TB) leukemia.
Experiment in all cases: inhibition of tumour cell growth, NCI panel, 48 h

Values joined by “and” are separate entries in the source; they are usually repeats but may differ in a detail not shown here. Equal values may be shown once.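 A five-concentration, 48-hour dose response in 96-well plates underlies each endpoint, interpolated linearly between surrounding concentrations. GI50 marks 50% less growth. At the TGI there is no net growth.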

For the compound `CN(C)C(=O)Oc1c(-c2ccccc2)c(=O)n2c3ccccc3n3c(=O)n(C)c(=O)c1c23`, the TGI in the experiment with OVCAR-4 ovarian, in the experiment on SK-MEL-28 melanoma, in the experiment with SN12C renal, with EKVX NSCLC, in the experiment on HCC-2998 colon and in the experiment on COLO 205 colon was more than 100 µM in each case.

As for `COC(=O)c1nn(C(=N)c2ccc(Cl)cc2)c2c1CCC2`, the TGI in the experiment with OVCAR-4 ovarian, in the experiment on SK-MEL-28 melanoma, with KM12 colon, in the experiment with SN12C renal, with HCC-2998 colon and with COLO 205 colon was more than 100 µM throughout. Besides, the TGI with HL-60(TB) leukemia was more than 100 µM.

Consider `O=[N+]([O-])c1ccc(C=NC23CC4CC(CC(C4)C2)C3)cc1`, for which the TGI with OVCAR-4 ovarian, with SK-MEL-28 melanoma, in the experiment on KM12 colon, in the experiment with SN12C renal, in the experiment on EKVX NSCLC and with HCC-2998 colon was more than 100 µM throughout. In addition, the TGI with COLO 205 colon and in the experiment with HL-60(TB) leukemia was more than 100 µM in each case.

Regarding `Cc1ccc(C(=O)CC2=Nc3nnc(CCCCCCCc4nnc5n4C(=O)C(CC(=O)c4ccc(C)cc4)=N5)n3C2=O)cc1`, the TGI in the experiment on OVCAR-4 ovarian, in the experiment with SK-MEL-28 melanoma, with KM12 colon, in the experiment on SN12C renal, with EKVX NSCLC and in the experiment with HCC-2998 colon was more than 100 µM each time. Besides, the TGI with COLO 205 colon and in the experiment with HL-60(TB) leukemia was more than 100 µM each time.

In the case of `O=C(CCC(=O)C1CCC/C1=N/O)Nc1ccc(Cl)cc1` (stereo not given), the TGI in the experiment on OVCAR-4 ovarian, in the experiment on SK-MEL-28 melanoma, in the experiment on KM12 colon, in the experiment with SN12C renal, in the experiment with EKVX NSCLC and in the experiment on HCC-2998 colon was more than 100 µM in each case. Further, the TGI with COLO 205 colon and in the experiment with HL-60(TB) leukemia was more than 100 µM throughout.

For the compound `Cc1cccc2c(O)cc(=O)oc12`, the TGI with OVCAR-4 ovarian, with SK-MEL-28 melanoma, in the experiment on KM12 colon, with SN12C renal, in the experiment on EKVX NSCLC and with HL-60(TB) leukemia was more than 100 µM throughout.

Turning to `O=NN(CCCl)C(=O)NC1CCC(CC2CCC(NC(=O)N(CCCl)N=O)CC2)CC1` (stereo not given), the TGI was more than 100 µM in the experiment on OVCAR-4 ovarian; more than 100 µM with SK-MEL-28 melanoma; more than 100 µM with KM12 colon; more than 73.5 µM in the experiment on SN12C renal; more than 100 µM with EKVX NSCLC; more than 100 µM in the experiment on HCC-2998 colon. In addition, the TGI in the experiment with COLO 205 colon was more than 88.1 µM; in the experiment with HL-60(TB) leukemia, more than 100 µM.

As to `O=C1/C(=C/c2ccc(Br)cc2)CCC/C1=C\c1ccc(Br)cc1`, the TGI is 36.2 µM with OVCAR-4 ovarian; 14.1 µM in the experiment on SK-MEL-28 melanoma; 10.9 µM with KM12 colon; 53 µM in the experiment with SN12C renal; 62.5 µM in the experiment with EKVX NSCLC; 6.48 µM in the experiment with HCC-2998 colon. The TGI was found to be 28.4 µM in the experiment on COLO 205 colon and 13.5 µM with HL-60(TB) leukemia.

Take `NNC(=O)C(=O)N/N=C(\CCC(=O)Nc1ccc(Cl)cc1)Cc1nc2ccccc2s1`: the TGI in the experiment on SK-MEL-28 melanoma, in the experiment on KM12 colon, in the experiment on SN12C renal, in the experiment on EKVX NSCLC, in the experiment on HCC-2998 colon and in the experiment with COLO 205 colon was more than 100 µM each time. In addition, the TGI with HL-60(TB) leukemia was more than 100 µM.

In the case of `Cn1c(=O)c2/c(n(C)c1=O)=N\C=c1\c(=O)n(C)c(=O)n(C)\c1=N\C=2`, the TGI in the experiment with OVCAR-4 ovarian, in the experiment on SK-MEL-28 melanoma, in the experiment with KM12 colon, in the experiment with SN12C renal, with EKVX NSCLC and in the experiment with HCC-2998 colon was more than 100 µM in each case. The TGI in the experiment on COLO 205 colon and in the experiment with HL-60(TB) leukemia was more than 100 µM each time.

Consider `OCCN1CCN(CC/C=C2/c3ccccc3Sc3ccc(Cl)cc32)CC1`, for which the TGI with OVCAR-4 ovarian came out at 31.5 µM; in the experiment on SK-MEL-28 melanoma, 3.38 µM; in the experiment on KM12 colon it was 23.2 µM; with SN12C renal, 26 µM; with EKVX NSCLC it was 31.3 µM; in the experiment on HCC-2998 colon it was 23.5 µM. Also, the TGI in the experiment with COLO 205 colon was determined as 23.3 µM; with HL-60(TB) leukemia, 16 µM.

Turning to `N.N.O=P([O-])([O-])C1(P(=O)([O-])[O-])CCCCCN1.[Pt+2]`, the GI50 in the experiment on OVCAR-4 ovarian, in the experiment with SK-MEL-28 melanoma, in the experiment with KM12 colon, in the experiment with SN12C renal, with HCC-2998 colon and in the experiment on COLO 205 colon was more than 100 µM in each case. Further, in the experiment with HL-60(TB) leukemia, the GI50 was more than 100 µM. For the same compound, the TGI in the experiment on OVCAR-4 ovarian, with SK-MEL-28 melanoma, in the experiment on KM12 colon, in the experiment on SN12C renal, with HCC-2998 colon and with COLO 205 colon was more than 100 µM throughout. Also, the TGI in the experiment on HL-60(TB) leukemia was more than 100 µM.

As for `CCC[CH2][Sn]1([CH2]CCC)[O]CC(C)[O]1` (stereo not given), the GI50 in the experiment on OVCAR-4 ovarian was 1.59 µM; in the experiment on SK-MEL-28 melanoma it was 2.24 µM; with KM12 colon, 2.1 µM; with SN12C renal, 1.39 µM; in the experiment with EKVX NSCLC, 1.83 µM; with HCC-2998 colon, 1.46 µM. Also, the results for the GI50 in the experiment on COLO 205 colon and with HL-60(TB) leukemia were 1.01 µM and 0.661 µM, respectively. Also, the TGI with OVCAR-4 ovarian was found to be 3.45 µM; in the experiment on SK-MEL-28 melanoma it was 3.96 µM; in the experiment with KM12 colon, 6.23 µM; with SN12C renal, 2.78 µM; in the experiment on EKVX NSCLC it was 4 µM; with HCC-2998 colon, 2.91 µM. Moreover, the TGI with COLO 205 colon is 2.29 µM; in the experiment with HL-60(TB) leukemia, 2.62 µM.

In the case of `CC(=O)[O-].O=C([CH-]C(=O)c1ccccc1)c1ccccc1.O=C([CH-]C(=O)c1ccccc1)c1ccccc1.[Sm+3]`, the GI50 with OVCAR-4 ovarian is 4.81 µM; in the experiment on SK-MEL-28 melanoma it was 5.87 µM; in the experiment with KM12 colon, 1.63 µM; in the experiment with SN12C renal, 6.23 µM; in the experiment with EKVX NSCLC, 2.11 µM; in the experiment with HCC-2998 colon it was 3.81 µM. The GI50 is 7.89 µM in the experiment on COLO 205 colon and 1.66 µM in the experiment on HL-60(TB) leukemia. Also, the TGI in the experiment on OVCAR-4 ovarian is 62.6 µM; with SK-MEL-28 melanoma, 37.8 µM; in the experiment on KM12 colon, 21.2 µM; in the experiment with SN12C renal, 24.8 µM; in the experiment on EKVX NSCLC, 16.6 µM; with HCC-2998 colon it was 14.6 µM. The TGI in the experiment with COLO 205 colon was 22.8 µM; in the experiment with HL-60(TB) leukemia it was 7.08 µM.

With `C[C@]12CCC(=O)C=C1CC[C@@H]1C2CC[C@]2(C)c3nn(-c4ccccc4)nc3CC12` (stereo not given in full), the TGI in the experiment on OVCAR-4 ovarian, in the experiment on SK-MEL-28 melanoma, in the experiment with KM12 colon, in the experiment with SN12C renal, with EKVX NSCLC and in the experiment with HCC-2998 colon was more than 100 µM each time. The TGI in the experiment with COLO 205 colon and in the experiment on HL-60(TB) leukemia was more than 100 µM in each case.

For the compound `CC(=O)[CH-]C(C)=O.CC(=O)[CH-]C(C)=O.CC[O-].CC[O-].[Ti+4]`, the GI50 in the experiment on OVCAR-4 ovarian, in the experiment with SK-MEL-28 melanoma, in the experiment with KM12 colon, with SN12C renal, in the experiment with HCC-2998 colon and with COLO 205 colon was more than 100 µM each time. Moreover, the GI50 in the experiment on HL-60(TB) leukemia was more than 100 µM. Further, the TGI in the experiment on OVCAR-4 ovarian, in the experiment on SK-MEL-28 melanoma, in the experiment with KM12 colon, in the experiment on SN12C renal, with HCC-2998 colon and in the experiment with COLO 205 colon was more than 100 µM each time. Moreover, the TGI in the experiment with HL-60(TB) leukemia was more than 100 µM.

Consider `CCc1cccc(C)c1NC(=O)CC1C(=O)Nc2ccccc2S1(=O)=O` (stereo not given), for which the TGI with OVCAR-4 ovarian came to 29.6 µM; in the experiment with SK-MEL-28 melanoma, 48.1 µM; with SN12C renal it was 63.6 µM; in the experiment on EKVX NSCLC, 41.9 µM; with HCC-2998 colon, 30.4 µM; with HL-60(TB) leukemia, 40.2 µM.

With `CC(=O)N/C(=C\c1ccc(Cc2nc3c([nH]2)C(=O)c2ccccc2C3=O)cc1)c1nc2c([nH]1)C(=O)c1ccccc1C2=O`, the TGI in the experiment on OVCAR-4 ovarian, in the experiment on SK-MEL-28 melanoma, in the experiment with KM12 colon, in the experiment on SN12C renal, in the experiment with EKVX NSCLC and with HCC-2998 colon was more than 100 µM in each case. The TGI in the experiment with COLO 205 colon and in the experiment on HL-60(TB) leukemia was more than 100 µM throughout.

Consider `O=C(/C=C\c1cccc2ccccc12)c1cccc2ccccc12`, for which the GI50 with OVCAR-4 ovarian was 11.3 µM; in the experiment with KM12 colon, 4.2 µM; with HL-60(TB) leukemia it was 2.9 µM. The TGI in the experiment on OVCAR-4 ovarian is 36.9 µM; in the experiment on SK-MEL-28 melanoma it was 20.5 µM; with KM12 colon it was 16.5 µM; in the experiment on SN12C renal, more than 100 µM; in the experiment with EKVX NSCLC it was 27.6 µM; in the experiment on HCC-2998 colon, 28.4 µM. The TGI in the experiment on HL-60(TB) leukemia is 9.29 µM and 25.6 µM.

With `CCN(CC)CC(=N)N(CC)c1ccccc1`, the TGI with OVCAR-4 ovarian, in the experiment with SK-MEL-28 melanoma, in the experiment on KM12 colon, in the experiment with SN12C renal, in the experiment on EKVX NSCLC and in the experiment with HCC-2998 colon was more than 100 µM throughout. The TGI in the experiment on COLO 205 colon and with HL-60(TB) leukemia was more than 100 µM each time.

As to `CCN(CC)CCNC(=O)c1cccc2nc3ccccc3nc12`, the TGI with OVCAR-4 ovarian was 38.8 µM; with SK-MEL-28 melanoma, 34.3 µM; with KM12 colon it was 45.8 µM; with SN12C renal, more than 100 µM; with EKVX NSCLC, more than 65.4 µM; with HCC-2998 colon, 52 µM. In addition, the TGI in the experiment on COLO 205 colon was more than 41.4 µM.

As for `CN(C)CC/C(=N\Nc1ccc(Cl)cc1Cl)c1ccccc1`, the TGI in the experiment with SK-MEL-28 melanoma worked out at 28.5 µM; in the experiment with KM12 colon it was 31.2 µM; with SN12C renal it was 25.1 µM; in the experiment with EKVX NSCLC, 43.1 µM; in the experiment on COLO 205 colon, 29.2 µM; in the experiment with HL-60(TB) leukemia, 21.6 µM.
